Counter-ions that a name gives are not always drawn. Calls of active or inactive are those of the source. For most assays here, no stated cut-off is given here; in the data, actives have a measured Kd and inactives only a lower limit.
Tests used:
[1] = target: T1, Serine/threonine-protein kinase D3 (Homo sapiens, UniProt O94806)
T1 sequence (O94806 whole entry): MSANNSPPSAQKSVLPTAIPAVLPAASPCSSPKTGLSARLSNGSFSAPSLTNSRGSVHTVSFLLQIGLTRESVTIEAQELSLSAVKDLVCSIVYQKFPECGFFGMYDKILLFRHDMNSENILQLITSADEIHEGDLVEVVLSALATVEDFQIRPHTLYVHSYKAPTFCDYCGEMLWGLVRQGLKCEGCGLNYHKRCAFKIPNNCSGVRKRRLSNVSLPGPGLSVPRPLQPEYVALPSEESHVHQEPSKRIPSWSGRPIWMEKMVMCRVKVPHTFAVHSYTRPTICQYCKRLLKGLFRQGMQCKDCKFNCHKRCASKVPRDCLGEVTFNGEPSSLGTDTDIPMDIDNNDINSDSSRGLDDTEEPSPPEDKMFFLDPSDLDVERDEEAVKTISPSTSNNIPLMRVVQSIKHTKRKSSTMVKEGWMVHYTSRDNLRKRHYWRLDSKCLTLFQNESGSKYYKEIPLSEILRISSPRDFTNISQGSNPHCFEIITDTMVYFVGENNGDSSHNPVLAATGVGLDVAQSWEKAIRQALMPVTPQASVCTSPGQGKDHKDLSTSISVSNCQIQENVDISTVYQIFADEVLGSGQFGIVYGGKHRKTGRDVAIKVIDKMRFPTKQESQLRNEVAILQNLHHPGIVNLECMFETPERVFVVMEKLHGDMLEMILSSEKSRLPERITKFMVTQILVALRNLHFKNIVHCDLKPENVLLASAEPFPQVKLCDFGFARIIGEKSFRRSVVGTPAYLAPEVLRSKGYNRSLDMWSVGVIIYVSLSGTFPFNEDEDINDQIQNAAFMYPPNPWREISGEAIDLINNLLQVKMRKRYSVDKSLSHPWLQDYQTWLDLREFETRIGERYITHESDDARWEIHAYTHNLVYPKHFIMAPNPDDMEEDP

[2] = target: T2, Serine/threonine-protein kinase 4 (Homo sapiens, UniProt Q13043)
T2 sequence (Q13043 whole entry): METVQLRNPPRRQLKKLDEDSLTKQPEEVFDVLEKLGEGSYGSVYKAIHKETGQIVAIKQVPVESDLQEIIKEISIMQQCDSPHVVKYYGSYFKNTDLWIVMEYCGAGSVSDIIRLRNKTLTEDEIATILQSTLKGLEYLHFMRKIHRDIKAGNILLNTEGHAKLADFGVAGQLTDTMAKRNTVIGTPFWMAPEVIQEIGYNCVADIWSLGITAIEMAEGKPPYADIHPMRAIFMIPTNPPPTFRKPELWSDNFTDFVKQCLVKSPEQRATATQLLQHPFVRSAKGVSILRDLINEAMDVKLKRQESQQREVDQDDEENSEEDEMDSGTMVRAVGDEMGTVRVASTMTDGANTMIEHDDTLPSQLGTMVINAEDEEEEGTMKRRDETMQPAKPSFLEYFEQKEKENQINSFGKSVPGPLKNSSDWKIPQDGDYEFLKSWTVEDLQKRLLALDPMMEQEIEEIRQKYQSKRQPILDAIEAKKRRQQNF

[3] = target: Proto-oncogene tyrosine-protein kinase receptor Ret (Homo sapiens, UniProt P07949)
[4] = target: Serine/threonine-protein kinase PAK 4 (Homo sapiens, UniProt O96013)
Chain of Serine/threonine-protein kinase PAK 4 (O96013 whole entry): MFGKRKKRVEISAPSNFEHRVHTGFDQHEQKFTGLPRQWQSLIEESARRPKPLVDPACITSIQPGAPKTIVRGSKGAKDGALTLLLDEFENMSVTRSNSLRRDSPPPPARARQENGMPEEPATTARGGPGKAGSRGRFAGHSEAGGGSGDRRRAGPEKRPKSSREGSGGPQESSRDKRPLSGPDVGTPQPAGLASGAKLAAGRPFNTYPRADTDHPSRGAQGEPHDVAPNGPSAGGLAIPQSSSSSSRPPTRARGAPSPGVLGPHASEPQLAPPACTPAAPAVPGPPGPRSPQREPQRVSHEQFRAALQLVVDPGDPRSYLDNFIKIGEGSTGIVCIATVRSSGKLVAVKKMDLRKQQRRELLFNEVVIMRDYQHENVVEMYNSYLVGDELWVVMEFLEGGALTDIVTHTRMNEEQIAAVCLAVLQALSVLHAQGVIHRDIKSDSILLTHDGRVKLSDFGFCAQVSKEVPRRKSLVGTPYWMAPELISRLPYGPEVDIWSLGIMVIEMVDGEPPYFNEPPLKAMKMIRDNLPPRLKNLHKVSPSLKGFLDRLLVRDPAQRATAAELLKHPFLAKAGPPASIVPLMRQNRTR

[5] = target: Tyrosine-protein kinase Lck (Homo sapiens, UniProt P06239)
Chain of Tyrosine-protein kinase Lck (P06239 whole entry): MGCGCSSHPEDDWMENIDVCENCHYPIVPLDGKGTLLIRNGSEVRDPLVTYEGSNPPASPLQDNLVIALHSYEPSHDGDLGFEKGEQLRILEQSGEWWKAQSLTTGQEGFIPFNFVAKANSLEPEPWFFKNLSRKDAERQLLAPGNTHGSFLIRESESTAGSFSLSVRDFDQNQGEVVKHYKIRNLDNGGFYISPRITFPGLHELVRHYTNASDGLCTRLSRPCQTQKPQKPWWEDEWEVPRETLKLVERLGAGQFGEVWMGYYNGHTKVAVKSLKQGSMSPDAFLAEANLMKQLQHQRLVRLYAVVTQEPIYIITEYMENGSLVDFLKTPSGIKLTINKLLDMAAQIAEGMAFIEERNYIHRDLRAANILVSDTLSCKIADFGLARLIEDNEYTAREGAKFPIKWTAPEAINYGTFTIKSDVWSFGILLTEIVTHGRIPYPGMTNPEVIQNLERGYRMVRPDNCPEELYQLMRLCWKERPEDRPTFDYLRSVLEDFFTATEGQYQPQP

[6] = target: cAMP-dependent protein kinase catalytic subunit beta (Homo sapiens, UniProt P22694)
[7] = target: Calcium/calmodulin-dependent protein kinase type II subunit delta (Homo sapiens, UniProt Q13557)
Chain of Calcium/calmodulin-dependent protein kinase type II subunit delta (Q13557 whole entry): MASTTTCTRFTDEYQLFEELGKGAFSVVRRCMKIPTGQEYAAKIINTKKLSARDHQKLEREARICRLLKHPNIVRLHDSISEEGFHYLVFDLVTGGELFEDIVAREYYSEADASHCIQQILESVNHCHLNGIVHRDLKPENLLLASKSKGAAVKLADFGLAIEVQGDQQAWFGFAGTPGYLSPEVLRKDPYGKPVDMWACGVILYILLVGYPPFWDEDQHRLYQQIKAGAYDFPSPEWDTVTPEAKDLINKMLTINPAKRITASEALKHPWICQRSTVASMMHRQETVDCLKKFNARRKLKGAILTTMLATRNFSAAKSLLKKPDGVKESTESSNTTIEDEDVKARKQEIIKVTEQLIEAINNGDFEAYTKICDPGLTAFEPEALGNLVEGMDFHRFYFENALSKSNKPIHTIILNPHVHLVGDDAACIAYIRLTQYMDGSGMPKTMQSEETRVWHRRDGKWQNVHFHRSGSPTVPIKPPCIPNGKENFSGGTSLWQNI

[8] = target: Serine/threonine-protein kinase MRCK beta (Homo sapiens, UniProt Q9Y5S2)
Chain of Serine/threonine-protein kinase MRCK beta (Q9Y5S2 whole entry): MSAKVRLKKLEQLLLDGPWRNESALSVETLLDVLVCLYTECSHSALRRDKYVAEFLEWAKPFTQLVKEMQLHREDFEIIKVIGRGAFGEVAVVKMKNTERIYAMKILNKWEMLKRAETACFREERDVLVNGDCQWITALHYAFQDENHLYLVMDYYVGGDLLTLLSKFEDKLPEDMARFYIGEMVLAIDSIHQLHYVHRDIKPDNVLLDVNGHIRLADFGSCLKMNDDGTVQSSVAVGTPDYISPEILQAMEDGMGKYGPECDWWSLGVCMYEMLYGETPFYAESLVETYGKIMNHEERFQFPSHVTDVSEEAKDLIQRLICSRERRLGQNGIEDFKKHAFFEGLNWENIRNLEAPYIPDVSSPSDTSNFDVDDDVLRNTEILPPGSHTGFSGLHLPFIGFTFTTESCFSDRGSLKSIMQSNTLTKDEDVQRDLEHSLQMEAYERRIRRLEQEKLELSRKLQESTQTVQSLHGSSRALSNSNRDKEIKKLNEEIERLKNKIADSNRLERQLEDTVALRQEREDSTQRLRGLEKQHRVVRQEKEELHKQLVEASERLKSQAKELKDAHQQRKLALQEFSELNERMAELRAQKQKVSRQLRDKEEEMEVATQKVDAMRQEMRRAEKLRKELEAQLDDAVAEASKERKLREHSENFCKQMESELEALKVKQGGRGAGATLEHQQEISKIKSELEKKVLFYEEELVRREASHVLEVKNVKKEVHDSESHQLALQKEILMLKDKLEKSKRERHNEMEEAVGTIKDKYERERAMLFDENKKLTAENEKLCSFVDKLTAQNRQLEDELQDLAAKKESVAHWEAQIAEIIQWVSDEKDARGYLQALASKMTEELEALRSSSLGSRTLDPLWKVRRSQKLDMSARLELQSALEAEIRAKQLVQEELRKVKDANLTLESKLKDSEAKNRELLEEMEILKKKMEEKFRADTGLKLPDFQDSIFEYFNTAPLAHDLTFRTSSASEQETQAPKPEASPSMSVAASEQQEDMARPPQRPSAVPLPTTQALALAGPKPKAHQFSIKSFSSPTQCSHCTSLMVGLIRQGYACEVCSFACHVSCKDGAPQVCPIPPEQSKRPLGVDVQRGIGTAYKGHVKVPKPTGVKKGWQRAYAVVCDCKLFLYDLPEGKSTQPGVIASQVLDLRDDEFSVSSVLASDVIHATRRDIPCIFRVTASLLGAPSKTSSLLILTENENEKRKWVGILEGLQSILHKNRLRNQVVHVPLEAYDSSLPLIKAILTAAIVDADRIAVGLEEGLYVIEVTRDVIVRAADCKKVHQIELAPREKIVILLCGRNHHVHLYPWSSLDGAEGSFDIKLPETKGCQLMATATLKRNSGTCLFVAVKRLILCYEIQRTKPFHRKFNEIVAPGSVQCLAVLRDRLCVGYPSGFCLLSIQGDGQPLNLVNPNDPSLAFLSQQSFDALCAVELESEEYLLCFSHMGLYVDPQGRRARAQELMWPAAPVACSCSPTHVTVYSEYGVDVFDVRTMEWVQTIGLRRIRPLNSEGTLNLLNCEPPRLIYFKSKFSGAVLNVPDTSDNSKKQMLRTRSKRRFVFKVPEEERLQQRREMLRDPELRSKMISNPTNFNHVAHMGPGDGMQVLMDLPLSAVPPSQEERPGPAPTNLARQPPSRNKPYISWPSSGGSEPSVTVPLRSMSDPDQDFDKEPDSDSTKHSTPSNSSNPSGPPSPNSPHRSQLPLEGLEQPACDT

[9] = target: Rho-associated protein kinase 2 (Homo sapiens, UniProt O75116)
Chain of Rho-associated protein kinase 2 (O75116 whole entry, the tested form may be a part): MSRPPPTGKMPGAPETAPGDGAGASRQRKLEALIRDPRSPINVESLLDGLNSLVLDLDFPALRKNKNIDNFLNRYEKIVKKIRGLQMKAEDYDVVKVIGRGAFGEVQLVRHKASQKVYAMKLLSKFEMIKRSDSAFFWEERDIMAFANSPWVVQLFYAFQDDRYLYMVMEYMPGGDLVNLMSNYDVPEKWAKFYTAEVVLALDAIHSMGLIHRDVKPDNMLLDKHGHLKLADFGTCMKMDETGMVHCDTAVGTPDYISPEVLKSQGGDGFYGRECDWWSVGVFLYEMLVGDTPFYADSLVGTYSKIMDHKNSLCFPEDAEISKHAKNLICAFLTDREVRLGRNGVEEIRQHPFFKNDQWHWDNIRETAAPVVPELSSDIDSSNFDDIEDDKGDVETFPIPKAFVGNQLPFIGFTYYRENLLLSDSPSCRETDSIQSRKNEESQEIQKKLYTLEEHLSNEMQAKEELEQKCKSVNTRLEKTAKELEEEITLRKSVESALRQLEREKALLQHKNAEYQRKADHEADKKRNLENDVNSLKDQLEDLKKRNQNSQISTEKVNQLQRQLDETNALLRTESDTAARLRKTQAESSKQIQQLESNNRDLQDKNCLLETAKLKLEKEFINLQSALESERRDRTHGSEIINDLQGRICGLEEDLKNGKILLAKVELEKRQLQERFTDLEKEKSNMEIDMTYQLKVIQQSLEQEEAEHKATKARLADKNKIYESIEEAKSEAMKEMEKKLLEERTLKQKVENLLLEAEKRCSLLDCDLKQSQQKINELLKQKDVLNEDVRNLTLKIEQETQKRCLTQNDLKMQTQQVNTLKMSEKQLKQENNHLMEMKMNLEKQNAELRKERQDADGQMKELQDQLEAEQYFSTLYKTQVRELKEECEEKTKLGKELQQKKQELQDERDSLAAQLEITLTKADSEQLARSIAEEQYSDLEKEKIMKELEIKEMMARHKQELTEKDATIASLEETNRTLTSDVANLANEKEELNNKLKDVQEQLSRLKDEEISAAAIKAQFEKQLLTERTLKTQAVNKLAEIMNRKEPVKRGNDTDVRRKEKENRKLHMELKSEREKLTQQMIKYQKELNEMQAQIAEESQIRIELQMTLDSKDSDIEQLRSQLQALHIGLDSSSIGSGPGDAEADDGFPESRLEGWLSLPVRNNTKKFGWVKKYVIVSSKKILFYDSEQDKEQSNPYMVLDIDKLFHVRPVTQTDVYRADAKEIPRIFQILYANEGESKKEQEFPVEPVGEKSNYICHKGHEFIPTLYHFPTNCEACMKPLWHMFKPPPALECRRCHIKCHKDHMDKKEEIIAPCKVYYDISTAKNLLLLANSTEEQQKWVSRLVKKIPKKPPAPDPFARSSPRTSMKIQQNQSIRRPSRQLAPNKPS

[10] = target: T3, Discoidin domain-containing receptor 2 (Homo sapiens, UniProt Q16832)
T3 sequence (Q16832 whole entry): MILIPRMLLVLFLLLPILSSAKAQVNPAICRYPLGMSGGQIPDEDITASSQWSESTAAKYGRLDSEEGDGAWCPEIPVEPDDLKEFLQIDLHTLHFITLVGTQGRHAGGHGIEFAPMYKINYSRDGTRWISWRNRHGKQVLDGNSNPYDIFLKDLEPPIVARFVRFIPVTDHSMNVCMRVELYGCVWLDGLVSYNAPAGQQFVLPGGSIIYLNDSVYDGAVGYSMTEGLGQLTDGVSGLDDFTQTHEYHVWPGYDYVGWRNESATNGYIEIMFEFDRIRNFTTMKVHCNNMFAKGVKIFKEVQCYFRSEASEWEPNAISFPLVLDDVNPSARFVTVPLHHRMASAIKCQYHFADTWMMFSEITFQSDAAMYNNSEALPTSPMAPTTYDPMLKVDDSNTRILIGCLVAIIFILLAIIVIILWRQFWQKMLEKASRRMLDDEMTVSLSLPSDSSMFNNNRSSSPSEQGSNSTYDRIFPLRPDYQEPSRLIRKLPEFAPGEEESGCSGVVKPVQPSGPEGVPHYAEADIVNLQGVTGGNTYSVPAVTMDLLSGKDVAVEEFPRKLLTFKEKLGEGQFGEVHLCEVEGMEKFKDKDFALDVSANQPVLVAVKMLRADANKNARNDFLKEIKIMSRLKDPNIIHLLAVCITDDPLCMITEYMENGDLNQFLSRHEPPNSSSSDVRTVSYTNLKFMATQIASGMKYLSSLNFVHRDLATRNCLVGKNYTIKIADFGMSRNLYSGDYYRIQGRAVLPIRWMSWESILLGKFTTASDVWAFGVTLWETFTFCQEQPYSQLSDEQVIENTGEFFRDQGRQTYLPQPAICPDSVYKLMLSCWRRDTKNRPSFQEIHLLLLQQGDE

| Compound | Kd [1] | Kd [2] | Kd [3] | Kd [4] | Kd [5] | Kd [6] | Kd [7] | Kd [8] | Kd [9] | Kd [10] |
| --- | --- | --- | --- | --- | --- | --- | --- | --- | --- | --- |
| COc1c(OCCCN2CCOCC2)ccc2c1N=C(NC(=O)c1cnc(N)nc1)N1CCN=C21 [COPANLISIB] | > 30 µM (inactive) | > 30 µM (inactive) | > 30 µM (inactive) | > 30 µM (inactive) | > 30 µM (inactive) | > 30 µM (inactive) | > 30 µM (inactive) | > 30 µM (inactive) | > 30 µM (inactive) | > 30 µM (inactive) |
| COCC(=O)NC/C=C/c1ccc2ncnc(Nc3ccc(Oc4ccc(C)nc4)c(C)c3)c2c1 [CP-724714] | > 30 µM (inactive) | > 30 µM (inactive) | > 30 µM (inactive) | > 30 µM (inactive) | > 30 µM (inactive) | > 30 µM (inactive) | > 30 µM (inactive) | > 30 µM (inactive) | > 30 µM (inactive) | > 30 µM (inactive) |
| CCS(=O)(=O)N1CCN(c2ccc(Nc3ncc(C(N)=O)c(NC4CC4)n3)cc2)CC1 [Cerdulatinib Hydrochloride] | 1.06 µM (active) | 0.102 µM (active) | 1.23 µM (active) | 0.851 µM (active) | > 30 µM (inactive) | > 30 µM (inactive) | > 30 µM (inactive) | > 30 µM (inactive) | > 30 µM (inactive) | > 30 µM (inactive) |
| Cc1nc2cc(-n3ncc(C(=O)c4cc5ccccc5[nH]4)c3N)ccc2[nH]1 [FGFR INHIBITOR DEBIO 1347] | > 30 µM (inactive) | > 30 µM (inactive) | 0.783 µM (active) | > 30 µM (inactive) | > 30 µM (inactive) | > 30 µM (inactive) | > 30 µM (inactive) | > 30 µM (inactive) | > 30 µM (inactive) | > 30 µM (inactive) |
| O=C(Nc1nc2cccc(-c3ccc(CN4CCS(=O)(=O)CC4)cc3)n2n1)C1CC1 [FILGOTINIB] | > 30 µM (inactive) | > 30 µM (inactive) | > 30 µM (inactive) | > 30 µM (inactive) | > 30 µM (inactive) | > 30 µM (inactive) | > 30 µM (inactive) | > 30 µM (inactive) | > 30 µM (inactive) | > 30 µM (inactive) |
| Cc1cccc(-c2nn3c(c2-c2ccnc4ccc(C(N)=O)cc24)CCC3)n1 [GALUNISERTIB] | > 30 µM (inactive) | > 30 µM (inactive) | > 30 µM (inactive) | > 30 µM (inactive) | > 30 µM (inactive) | > 30 µM (inactive) | > 30 µM (inactive) | > 30 µM (inactive) | > 30 µM (inactive) | > 30 µM (inactive) |
| O=C(Nc1cc(C(F)(F)F)cc(C(F)(F)F)c1)c1cc(Cl)ccc1O [IMD-0354] | > 30 µM (inactive) | > 30 µM (inactive) | > 30 µM (inactive) | > 30 µM (inactive) | > 30 µM (inactive) | > 30 µM (inactive) | > 30 µM (inactive) | > 30 µM (inactive) | > 30 µM (inactive) | > 30 µM (inactive) |
| CNC(=O)c1cccc2cc(Oc3ccnc4cc(OCC5(N)CC5)c(OC)cc34)ccc12 [LUCITANIB] | > 30 µM (inactive) | > 30 µM (inactive) | 0.005 µM (active) | > 30 µM (inactive) | > 30 µM (inactive) | > 30 µM (inactive) | > 30 µM (inactive) | > 30 µM (inactive) | > 30 µM (inactive) | 0.094 µM (active) |
| FC(F)(F)c1ccc(/C=C/c2nc(COc3ccc(CCCCn4ccnn4)cc3)co2)cc1 [MUBRITINIB] | > 30 µM (inactive) | > 30 µM (inactive) | > 30 µM (inactive) | > 30 µM (inactive) | > 30 µM (inactive) | > 30 µM (inactive) | > 30 µM (inactive) | > 30 µM (inactive) | > 30 µM (inactive) | > 30 µM (inactive) |
| COc1ncc(-c2ccc3nccc(-c4ccnnc4)c3c2)cc1NS(=O)(=O)c1ccc(F)cc1F [OMIPALISIB] | > 30 µM (inactive) | > 30 µM (inactive) | > 30 µM (inactive) | > 30 µM (inactive) | > 30 µM (inactive) | > 30 µM (inactive) | > 30 µM (inactive) | > 30 µM (inactive) | > 30 µM (inactive) | > 30 µM (inactive) |
| CCCCCCCCCCCCCCCCCCOP(=O)([O-])OC1CC[N+](C)(C)CC1 [PERIFOSINE] | > 30 µM (inactive) | > 30 µM (inactive) | > 30 µM (inactive) | > 30 µM (inactive) | > 30 µM (inactive) | > 30 µM (inactive) | > 30 µM (inactive) | > 30 µM (inactive) | > 30 µM (inactive) | > 30 µM (inactive) |

The remaining lines, values ahead:

| Kd [1] | Kd [2] | Kd [3] | Kd [4] | Kd [5] | Kd [6] | Kd [7] | Kd [8] | Kd [9] | Kd [10] | Compound |
| --- | --- | --- | --- | --- | --- | --- | --- | --- | --- | --- |
| 1.93 µM (active) | > 30 µM (inactive) | 0.067 µM (active) | > 30 µM (inactive) | > 30 µM (inactive) | > 30 µM (inactive) | > 30 µM (inactive) | > 30 µM (inactive) | 2.4 µM (active) | 1.27 µM (active) | CCn1cc(-c2ccnc3[nH]c(-c4cccc(CN(C)C)c4)cc23)c(-c2ccc(NC(=O)N(C)C)cc2)n1 [GSK-1070916] |
| > 30 µM (inactive) | > 30 µM (inactive) | > 30 µM (inactive) | > 30 µM (inactive) | > 30 µM (inactive) | > 30 µM (inactive) | > 30 µM (inactive) | > 30 µM (inactive) | > 30 µM (inactive) | > 30 µM (inactive) | COc1ccc(S(=O)(=O)N(C(C)=O)c2ccccc2/C=C/c2cc[n+]([O-])cc2)cc1 [HMN-214] |
| > 30 µM (inactive) | > 30 µM (inactive) | > 30 µM (inactive) | > 30 µM (inactive) | > 30 µM (inactive) | > 30 µM (inactive) | > 30 µM (inactive) | > 30 µM (inactive) | > 30 µM (inactive) | > 30 µM (inactive) | NC1(c2ccc(-c3nc4ccn5c(=O)[nH]nc5c4cc3-c3ccccc3)cc2)CCC1 [MK-2206] |
| > 30 µM (inactive) | > 30 µM (inactive) | > 30 µM (inactive) | > 30 µM (inactive) | > 30 µM (inactive) | > 30 µM (inactive) | > 30 µM (inactive) | > 30 µM (inactive) | > 30 µM (inactive) | > 30 µM (inactive) | Cn1cc(-c2cnc3ccc4ccc(CS(=O)(=O)NCc5ccccn5)cc4c(=O)c3c2)cn1 [MK-8033] |

From ChEMBL document CHEMBL3991601, “The target landscape of clinical kinase drugs” (Science, 2017)
